# According to the OligoGym collection:
# “And” between values parts separate entries of the source, which are not always exact repeats. Equal values may be shown once. After the bases stand the sugars from the 5' end (letter, count) and the backbone: PS all phosphorothioate, else s phosphorothioate and o phosphodiester by linkage. Methylation of C is not given here. [mop] = methoxypropylphosphonate linkage; e = 2'-O-(2-methoxyethyl) (MOE); k = constrained ethyl (cEt); d = 2'-deoxy (DNA); m = 2'-O-methyl
# Target: IRF5
# Settings: ASO
sequence,measurement,setting,value
"GGTCTTGACCTCCCGC (sugars kkdddddddddkekek, PS)",target mRNA inhibition,"KARPAS-229, 4 µM",7%
"GGTCTTGACCTCCCGC (sugars kkddddddddkekekk, PS)",target mRNA inhibition,"KARPAS-229, 4 µM",44%
"GGTCTTTGAGGTCTGG (sugars kkdddddddddkekek, PS)",target mRNA inhibition,"KARPAS-229, 4 µM",54%
"GGTCTTTGAGGTCTGG (sugars kkkddddddddkekek, PS)",target mRNA inhibition,"KARPAS-229, 4 µM",46%
"GGTGTATTTCCCTGTC (sugars kkkdddddddddkeke, PS)",target mRNA inhibition,"KARPAS-229, 4 µM",0%
"GGTTCTTGGACTCTCA (sugars kkddddddddddkeke, PS)",target mRNA inhibition,"KARPAS-229, 0.44444 µM",39%
same,target mRNA inhibition,"KARPAS-229, 1.33333 µM",59%
same,target mRNA inhibition,"KARPAS-229, 4 µM",51% and 73%
same,target mRNA inhibition,"KARPAS-229, 12 µM",84%
"GGTTCTTGGACTCTCA (sugars kkkddddddddkekek, PS)",target mRNA inhibition,"KARPAS-229, 4 µM",25%
"GTCATGGAATTTTGTG (sugars k3 d10 k3, PS)",target mRNA inhibition,"KARPAS-229, 4 µM",54%
"GTCTAGTGTCATGGAA (sugars k3 d10 k3, PS)",target mRNA inhibition,"KARPAS-229, 4 µM",38%
"GTCTGGCCCTTTTGGA (sugars kkddddddddddkeke, PS)",target mRNA inhibition,"KARPAS-229, 4 µM",0%
"GTGAGTCTCAAACCAG (sugars kddddddddddkekek, PS)",target mRNA inhibition,"KARPAS-229, 4 µM",0%
"GTGAGTCTCAAACCAG (sugars kkddddddddkekekk, PS)",target mRNA inhibition,"KARPAS-229, 4 µM",9%
"GTGAGTCTCAAACCAG (sugars kkkdddddddddkeke, PS)",target mRNA inhibition,"KARPAS-229, 4 µM",0%
"GTGTATTTCCCTGTCT (sugars kkdddddddddkekek, PS)",target mRNA inhibition,"KARPAS-229, 4 µM",0%
"GTGTATTTCCCTGTCT (sugars kkkddddddddkekek, PS)",target mRNA inhibition,"KARPAS-229, 4 µM",0%
"GTTATCTCCGTCCTGG (sugars k3 d9 k3 e1, PS)",target mRNA inhibition,"KARPAS-229, 4 µM",33%
"GTTATCTCCGTCCTGG (sugars kdddddddddkekeke, PS)",target mRNA inhibition,"KARPAS-229, 4 µM",0%
"GTTATCTCCGTCCTGG (sugars kkddddddddddkeke, PS)",target mRNA inhibition,"KARPAS-229, 4 µM",0%
"GTTATCTCCGTTCCTGG (sugars kddddddddddkekekd, PS)",target mRNA inhibition,"KARPAS-229, 4 µM",0%
"GTTATCTCCGTTCCTGG (sugars kkkddddddddkdkdkd, PS)",target mRNA inhibition,"KARPAS-229, 4 µM",27%
"GTTCTTGGACTCTCAA (sugars kkdddddddddkdkdk, PS)",target mRNA inhibition,"KARPAS-229, 4 µM",20%
"TAAACCATTCTATGCC (sugars k3 d10 k3, PS)",target mRNA inhibition,"KARPAS-229, 4 µM",9%
"TAAGGGCACAGCGCAG (sugars k3 d10 k3, PS)",target mRNA inhibition,"KARPAS-229, 4 µM",0%
"TAGGAGTGAGACGAGC (sugars k3 d10 k3, PS)",target mRNA inhibition,"KARPAS-229, 4 µM",1%
"TATTTCTGCTCCAGGT (sugars k2 d9 e3 k2, PS)",target mRNA inhibition,"KARPAS-229, 0.44444 µM",57%
same,target mRNA inhibition,"KARPAS-229, 1.33333 µM",71%
same,target mRNA inhibition,"KARPAS-229, 12 µM",83%
"TATTTCTGCTCCAGGT (sugars kkddddddddkekekk, PS)",target mRNA inhibition,"KARPAS-229, 4 µM",0%
"TATTTCTGCTCCAGGT (sugars kkkddddddddkekek, PS)",target mRNA inhibition,"KARPAS-229, 4 µM",24%
"TCACCACTGTGTACCC (sugars k2 d8 e4 k2, PS)",target mRNA inhibition,"KARPAS-229, 4 µM",0%
"TCCAATTTTGCATTCC (sugars k3 d10 k3, PS)",target mRNA inhibition,"KARPAS-229, 0.44444 µM",38%
same,target mRNA inhibition,"KARPAS-229, 1.33333 µM",66%
same,target mRNA inhibition,"KARPAS-229, 4 µM",78% and 79%
same,target mRNA inhibition,"KARPAS-229, 12 µM",83%
"TCCAATTTTGCATTCC (sugars kkddddddddddkeke, PS)",target mRNA inhibition,"KARPAS-229, 4 µM",40%
"TCCAATTTTGCATTCC (sugars kkdddddddddkekek, PS)",target mRNA inhibition,"KARPAS-229, 4 µM",29%
"TCCAATTTTGCATTCC (sugars kkkddddddddkekek, PS)",target mRNA inhibition,"KARPAS-229, 4 µM",51%
"TCTAGTGTCATGGAAT (sugars k3 d10 k3, PS)",target mRNA inhibition,"KARPAS-229, 4 µM",14%
"TCTGATATGATACCTA (sugars k3 d1 k1 d8 k3, PS)",target mRNA inhibition,"A-431, 0.00412 µM",0%
same,target mRNA inhibition,"A-431, 0.01225 µM",7%
same,target mRNA inhibition,"A-431, 0.03704 µM",43%
same,target mRNA inhibition,"A-431, 0.11111 µM",65%
same,target mRNA inhibition,"A-431, 0.33333 µM",81%
same,target mRNA inhibition,"A-431, 1 µM",85%
"TCTGATATGATACCTA (sugars k3 d1 m1 d8 k3, PS)",target mRNA inhibition,"A-431, 0.00412 µM",1%
same,target mRNA inhibition,"A-431, 0.01225 µM",8%
same,target mRNA inhibition,"A-431, 0.03704 µM",35%
same,target mRNA inhibition,"A-431, 0.11111 µM",57%
same,target mRNA inhibition,"A-431, 0.33333 µM",77%
same,target mRNA inhibition,"A-431, 1 µM",81%
"TCTGATATGATACCTA (sugars k3 d10 k3, linkages s4 [mop]1 s10)",target mRNA inhibition,"A-431, 0.00412 µM",10%
same,target mRNA inhibition,"A-431, 0.01225 µM",14%
same,target mRNA inhibition,"A-431, 0.03704 µM",43%
same,target mRNA inhibition,"A-431, 0.11111 µM",66%
same,target mRNA inhibition,"A-431, 0.33333 µM",80%
same,target mRNA inhibition,"A-431, 1 µM",87%
"TCTGATATGATACCTA (sugars k3 d10 k3, linkages s5 [mop]1 s9)",target mRNA inhibition,"A-431, 0.00412 µM",10%
same,target mRNA inhibition,"A-431, 0.01225 µM",6%
same,target mRNA inhibition,"A-431, 0.03704 µM",38%
same,target mRNA inhibition,"A-431, 0.11111 µM",56%
same,target mRNA inhibition,"A-431, 0.33333 µM",71%
same,target mRNA inhibition,"A-431, 1 µM",77%
"TCTGGCCCTTTTGGAA (sugars kddddddddddkekek, PS)",target mRNA inhibition,"KARPAS-229, 4 µM",0%
"TCTTGACCTCCCGCTG (sugars kddddddddddkekek, PS)",target mRNA inhibition,"KARPAS-229, 4 µM",46%
"TGACTGTATTACCTAT (sugars k3 d10 k3, PS)",target mRNA inhibition,"KARPAS-229, 4 µM",18%
"TGAGTAGGACGAGTTA (sugars k3 d10 k3, PS)",target mRNA inhibition,"KARPAS-229, 4 µM",18%
"TGAGTCATGGGCTGAG (sugars k2 d8 e4 k2, PS)",target mRNA inhibition,"KARPAS-229, 4 µM",15%
"TGAGTCATGGGCTGAG (sugars kddddddddkekekdd, PS)",target mRNA inhibition,"KARPAS-229, 4 µM",0%
"TGAGTCATGGGCTGAG (sugars kekdddddddddeekk, PS)",target mRNA inhibition,"KARPAS-229, 4 µM",12%
"TGAGTCATGGGCTGAG (sugars kkkddddddddkekek, PS)",target mRNA inhibition,"KARPAS-229, 4 µM",0%
"TGAGTCTCAAACCAGG (sugars kkdddddddddkekek, PS)",target mRNA inhibition,"KARPAS-229, 4 µM",0%
"TGAGTCTCAAACCAGG (sugars kkdddkddddkekekk, PS)",target mRNA inhibition,"KARPAS-229, 4 µM",0%
"TGAGTCTCAAACCAGG (sugars kkkddddddddkekek, PS)",target mRNA inhibition,"KARPAS-229, 4 µM",0%
"TGCACTGACACAGGCG (sugars kkkddddddddkekek, PS)",target mRNA inhibition,"KARPAS-229, 4 µM",0%
"TGCAGGGAGTCAGACC (sugars k3 d10 k3, PS)",target mRNA inhibition,"KARPAS-229, 4 µM",0%
"TGCCTTCTGCAGGGAG (sugars k3 d10 k3, PS)",target mRNA inhibition,"KARPAS-229, 4 µM",0%
"TGTCACATCTCCACAT (sugars kddddddddddkekek, PS)",target mRNA inhibition,"KARPAS-229, 4 µM",16%
"TGTCACATCTCCACAT (sugars kkddddddddkekekk, PS)",target mRNA inhibition,"KARPAS-229, 4 µM",0%
"TGTCTAGTGTCATGGA (sugars k2 d9 e3 k2, PS)",target mRNA inhibition,"A-431, 0.00412 µM",0% and 4%
same,target mRNA inhibition,"A-431, 0.01225 µM",0% and 2%
same,target mRNA inhibition,"A-431, 0.03704 µM",24% and 28%
same,target mRNA inhibition,"A-431, 0.11111 µM",44%
same,target mRNA inhibition,"A-431, 0.33333 µM",59% and 60%
same,target mRNA inhibition,"A-431, 1 µM",69% and 74%
same,target mRNA inhibition,"KARPAS-229, 0.44444 µM",33%
same,target mRNA inhibition,"KARPAS-229, 1.33333 µM",50%
same,target mRNA inhibition,"KARPAS-229, 4 µM",60% and 57%
same,target mRNA inhibition,"KARPAS-229, 12 µM",70%
"TGTCTAGTGTCATGGA (sugars k2 d9 e3 k2, linkages s4 [mop]1 s10)",target mRNA inhibition,"A-431, 0.00412 µM",2%
same,target mRNA inhibition,"A-431, 0.01225 µM",11%
same,target mRNA inhibition,"A-431, 0.03704 µM",4%
same,target mRNA inhibition,"A-431, 0.11111 µM",8%
same,target mRNA inhibition,"A-431, 0.33333 µM",18%
same,target mRNA inhibition,"A-431, 1 µM",32%
"TGTCTAGTGTCATGGA (sugars k3 d10 k3, PS)",target mRNA inhibition,"KARPAS-229, 0.44444 µM",0%
same,target mRNA inhibition,"KARPAS-229, 1.33333 µM",42%
same,target mRNA inhibition,"KARPAS-229, 4 µM",61% and 65%
same,target mRNA inhibition,"KARPAS-229, 12 µM",74%
"TGTCTAGTGTCATGGA (sugars kkdddddddddkekek, PS)",target mRNA inhibition,"KARPAS-229, 4 µM",44%
"TGTCTAGTGTCATGGA (sugars kkdmdddddddeeekk, PS)",target mRNA inhibition,"A-431, 0.00412 µM",0%
same,target mRNA inhibition,"A-431, 0.01225 µM",11%
same,target mRNA inhibition,"A-431, 0.03704 µM",5%
same,target mRNA inhibition,"A-431, 0.11111 µM",15%
same,target mRNA inhibition,"A-431, 0.33333 µM",25%
same,target mRNA inhibition,"A-431, 1 µM",33%
